# Results: paper PMC12626088 (RSC Advances, 2025)
# Legend:
# α-glucosidase = α-glucosidase inhibition assay; format: biochemical; settings: sample described as 'SR (compound 4a) methanolic extract'
# α-amylase = α-amylase inhibition assay; format: biochemical; settings: sample described as 'SR (compound 4a) methanolic extract'
smiles,measurement,setting,value
"C(#CC(c1ccccc1)N1CCOCC1)c1ccccc1 (centres unmarked) [4a, 4-(1,3-diphenylprop-2-yn-1-yl)morpholine]",IC50,α-glucosidase,111.42 µg/mL
same,IC50,α-amylase,112.98 µg/mL
